The subject of one series is balb/c 3T3 cells. Description: Inhibitory action to EGF stimulated cell growth (3H-thymidine incorporation). Format: cell-based. The following applies: 16 hours + 8 hours 3H-thymidine. The protocol:
A culture medium (hereinafter referred to as "CS DMEM") containing 10% of calf serum, which was prepared so that 2.5 x 10⁴ of fibroblasts (balb/c 3T3 cells) were contained in 0.5 ml, was added in a 24-well plate in an amount of 0.5 ml per well. After the fibroblasts were confluent in the state of a single layer, the culture medium was replaced with the same amount of 1% CS DMEM and the cells were incubated at 37°C for 12 hours in a humidified atmosphere of 95% air-5% CO₂. Then, 1 µg/25 µl/well of trans-(6)-shogaol and 5 ng/25 µl/well of EGF (supplied by Collaborative Research, Inc.) were added, and the cells were further incubated for 16 hours. Then, 0.5 µCi(1.85+10⁻¹⁶S⁻¹)/50 µl of ³H-thymidine was added and the cells were further incubated 8 hours. The culture medium was removed, and the cells were washed with a cold phosphate buffered saline. […] The radioactivity of ³H-thymidine included in the cells by this growth was measured, and the action of trans-(6)-shogaol to the growth of the cells was examined.
10% CS DMEM prepared so that 2.5 x 10⁴ of fibroblasts (balb/c 3T3 cells) were contained in 0.5 ml were added in a 24-well plate in an amount of 0.5 ml/well. […] The radioactivity of ³H-thymidine included in the cells by this growth was measured, and the function of cis-(6)-shogaol to the growth of the cells was examined.

The next series in a line: Acute toxicity test. Also noted: species or system mice. The following applies: mouse, in vivo. The protocol: (§1) The acute toxicity test of cis-(6)-shogaol was carried out by using male mice of the ICR line.
The target in another series is T1, 5-lipoxygenase (Rattus norvegicus, UniProt P12527).
T1 construct: The supernatant was used as the standard enzyme of 5-lipoxygenase; endogenous in cells; host or cells: RBL-1 cultured cells, sonicated; 105,000 x G supernatant
T1 sequence (P12527 1-673): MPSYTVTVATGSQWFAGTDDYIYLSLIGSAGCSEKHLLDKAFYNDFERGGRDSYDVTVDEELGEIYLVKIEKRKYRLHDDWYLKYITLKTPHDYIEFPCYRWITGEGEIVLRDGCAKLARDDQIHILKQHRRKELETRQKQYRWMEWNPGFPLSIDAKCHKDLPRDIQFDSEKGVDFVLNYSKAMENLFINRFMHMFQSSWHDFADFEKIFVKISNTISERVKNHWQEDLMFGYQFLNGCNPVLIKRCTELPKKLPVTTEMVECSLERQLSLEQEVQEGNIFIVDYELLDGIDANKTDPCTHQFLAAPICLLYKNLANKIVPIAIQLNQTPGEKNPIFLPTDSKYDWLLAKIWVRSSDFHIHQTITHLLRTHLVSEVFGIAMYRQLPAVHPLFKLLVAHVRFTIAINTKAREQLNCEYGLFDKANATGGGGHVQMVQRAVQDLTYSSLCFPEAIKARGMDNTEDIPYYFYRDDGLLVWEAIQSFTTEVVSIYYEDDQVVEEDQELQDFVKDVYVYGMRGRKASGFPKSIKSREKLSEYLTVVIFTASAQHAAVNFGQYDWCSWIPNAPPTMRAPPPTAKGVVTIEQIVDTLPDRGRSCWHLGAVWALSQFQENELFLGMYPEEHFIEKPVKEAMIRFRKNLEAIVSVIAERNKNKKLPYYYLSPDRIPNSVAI
Description: 5-Lipoxygenase-inhibiting action (5-HETE formation, enzyme from RBL-1 cultured cells). Format: biochemical. The note with it: 5-lipoxygenase from RBL-1 cells, 10 µM arachidonic acid, 37°C 10 minutes; tested at 5, 1 or 0.5 µM. The protocol: RBL-1 cultured cells were suspended in a 50 mM phosphate buffer solution (pH 7.4) containing 1 mM EDTA and 10% ethylene glycol so that the cell concentration was 5 x 10⁶ per ml, and the cell suspension was subjected to an ultrasonic wave treatment. Then, centrifugal separation was carried out under 10,000 x G for 10 minutes and then under 105,000 x G for 60 minutes. The supernatant was used as the standard enzyme of 5-lipoxygenase.
A test tube was charged with a 50 mM phosphate buffer solution, 1.5 mM calcium chloride, 20 µM indomethacin, 18 mM glutathione, 6 mM ATP, 10 µM arachidonic acid, the obtained standard enzyme, and an ethanol solution of cis-(6)-shogaol, to a total volume of 0.6 ml and a final concentration of 5, 1 or 0.5 µM, and a reaction was carried out at 37°C for 10 minutes. […] The amount of 5-HETE in the liquid measured by the high-speed liquid chromatography [column = TSK-gel ODS-80TM (supplied by Toso), moving phase = acetonitrile/water/ acetic acid (60/40/0.02), flow rate = 1 ml/min, detection = ultraviolet ray (235 nm)], and the obtained value was designated as the enzyme activity. The inhibition ratio at each concentration was calculated by the following formula, and the concentration giving an inhibition ratio of 50% (hereinafter referred to as "IC₅₀") was determined. […]

Another series deals with cyclooxygenase. The experiment in a line: Cyclooxygenase-inhibiting action (PGE2 formation, rabbit kidney marrow microsome fraction). Format: biochemical. The note with it: cyclooxygenase from rabbit kidney marrow microsomes, [1-14C] arachidonic acid, 37°C 15 minutes; tested at 40, 20, 10 or 5 µM. The procedure:
To 7.0 g of rabbit kidney marrow was added 60 ml of a 0.1M phosphate buffer solution (pH 7.5) containing 1 mM glutathione, and the mixture was homogenized by using a polytrone. The homogenate was subjected to the centrifugal separation under. 105,000 x G for 60 minutes to obtain a microsome fraction, and the fraction was dissolved in 7 ml of a 0.1M phosphate buffer solution (pH 7.5) containing 1 mM glutathione to obtain a standard enzyme of cyclooxygenase.
To 15 µl of the obtained standard enzyme were added 4 mM glutathione, 10 mM tryptophan, 0.25 µM hemoglobin, and a phosphate buffer solution (pH 7.5), each concentration being the final concentration, and [1-¹⁴C] arachidonic acid (5 x 10⁴ dpm) and cis-(6)-shogaol were added to a final concentration of 40, 20, 10 or 5 µM and a total volume of 200 µl. Incubation was carried out at 37 °C for 15 minutes, and 1N hydrochloric acid was added to stop the reaction. Prostaglandin E₂ (PGE₂) was added as the carrier and the reaction product was extracted with 2 ml of ether. […] Coloration was effected with an iodine vapor, the portion corresponding of […] was scratched out, and the radioactivity of PGE₂ was measured by a liquid scintillation counter. The inhibition ratio at each concentration was calculated according to the following formula, and the 1C₅₀ was determined. […]

The subject of series [1] is male mice of the ICR line. The experiment in a line: Acute toxicity test. The following applies: mouse, in vivo, po, 500 mg/kg. The procedure:
as §1

Like-named read-outs stand apart in the source and are kept apart here.

Turning to `CCCCC/C=C/C(=O)CCc1ccc(O)c(OC)c1` [trans-(6)-shogaol, 1(4-hydroxy-3-methoxyphenyl)-(E)-4-decen-3-one], the “growth inhibited, balb/c 3T3 cells the growth of which was promoted by EGF” value in the series on balb/c 3T3 cells (Experiment 1: 1 µg/25 µl/well compound, 5 ng/25 µl/well EGF) was found to be 52.7%. In addition, the LD50 in the series “Acute toxicity test” (iv) was determined as 50.9 mg/kg; in “Acute toxicity test” (oral administration, Litchfield-Wilcoxon method, male ICR mice, read-out: LD50), 687 mg/kg.

For `CCCCC/C=C\C(=O)CCc1ccc(O)c(OC)c1` [cis-(6)-shogaol], the IC50 was determined as 0.83 µM against 5-lipoxygenase and 11.7 µM against cyclooxygenase. The “growth inhibited, balb/c 3T3 cells the growth of which was promoted by EGF” value in the series on balb/c 3T3 cells (Experiment 4: 0.5 µg/12.5 µl/well compound, 50 pg/25 µl/well mouse EGF) was 63.9%. The mortality result in series [1] is recorded as “none of the mice died”.

The values are drawn from patent EP0334967B1, “KERATOSIS-TREATING AGENT” (priority 1987, dated 1989).
